A short description of this data set: Human HepG2 cell viability assay in 384 well format. Also on record: dose 125 nL, time 70.5 hour; concentration not given beside the values. The class given is toxicity, cell-based. Particulars: HepG2 cells, read-out: Inhibition.
On to `Cc1noc(CCNC(=O)NCC(=O)NCc2ccccc2)n1`, for which the cytotoxicity at 70.5 h is -4.83%.
With `NS(=O)(=O)CCN1CCN(c2ccccc2O)CC1` the figure was -0.407%; with `CC(=O)Nc1ccc(CNC(C)c2c(C)nn(C)c2C)cc1` (configuration not stated), 13.1%.
As for `c1cnc(-c2nc(C3CCOC3)no2)cn1` (configuration not stated), the figure is -3.44%; as for `CN1CCN(C(=O)c2cccn2C)c2ccccc2C1`, -6.26%.
As for `O=C(NCCOc1ccc(Cl)cn1)NCCc1ccccn1`, the figure is -3.16%; as for `Cc1cc(NC(=O)NCCOc2ccc(Cl)cn2)no1`, -3.43%; as for `Cc1csc(C(C)(C)NCc2ncc(-c3ccc(F)cc3)o2)n1`, -4.53%.
On to `Cc1nn(C)c(C)c1C(C)NCc1ccsc1` (configuration not stated), for which the cytotoxicity at 70.5 h was 3.61%.
With `CSCc1cc(F)ccc1CNC(=O)N1CCC(CO)CC1` the figure was -0.781%.
With `CN1CCOC(CNCCOc2ccc(C#N)cc2)C1` (configuration not stated) the figure was -5.57%.
With `COc1ccnc(NC(Cc2ccccc2)C(=O)N(C)C)n1` (configuration not stated), the cytotoxicity at 70.5 h amounted to 5.68%.
As for `OCCCN1CCCC1c1nc(Cc2ccc(F)cc2)no1` (configuration not stated), the figure is 8.04%; as for `Fc1ccc(CNCCn2cccn2)cc1F`, 16.8%; as for `O=C(CNC1CCc2ncnn2C1)NCCc1cccs1` (configuration not stated), 2.68%.
With `CCc1nc(C)c(C(C)N(C)CCOC)s1` (configuration not stated) the figure was 10.1%.
With `O=C(NCCNc1ccccn1)NC1CCCC1` the figure was -4.33%.
Consider `CN(Cc1ccc(Cl)cc1)C(=O)Nc1cnn(CC(N)=O)c1`, for which the cytotoxicity at 70.5 h is 8.79%.
As for `Cc1ccccc1CC(C)(C)NC(=O)c1cccc(OCC(N)=O)c1`, the figure is -4.51%; as for `Cn1cc(C(=O)NCCC(=O)N2CCCCC2)c(-c2cccnc2)n1`, 6.62%; as for `COc1cccc(NC(=O)N2CCC(O)(C(F)(F)F)C2)c1` (configuration not stated), -2.52%.
Turning to `O=C(c1ccccc1O)N1CCn2c(nnc2C(F)(F)F)C1`, the cytotoxicity at 70.5 h was -1.13%.
As for `Cc1ccccc1CC(C)(C)NC(=O)CCOc1cccc(C(N)=O)c1`, the figure is 4.51%.
As to `COc1ccc(CN(C(=O)CCC(C)C)c2cnn(C)c2)c(OC)c1`, the cytotoxicity at 70.5 h is -4.57%.
With `NS(=O)(=O)CCN1CCN(c2cc(F)ccc2F)CC1` the figure was 10.3%; with `CCOCc1cccc(NCc2c[nH]nc2-c2cccnc2)c1`, -2.34%; with `C=C(C)CN1CCCC1c1nc(Cc2ccc(F)cc2)no1` (configuration not stated), 12.4%.
Take `CCc1nc2n(n1)CC(NCCc1cccs1)CC2` (configuration not stated): the cytotoxicity at 70.5 h is 3.55%.
Turning to `CCN1CCCN(S(=O)(=O)c2cc3ccccc3o2)CC1`, the cytotoxicity at 70.5 h was -4.88%.
With `COCCCSc1ccc(NCc2ccc(C)cn2)cc1` the figure was -6.35%.
Turning to `Cc1csc(CNCC2CCCN(C(=O)OC(C)(C)C)C2)n1` (configuration not stated), the cytotoxicity at 70.5 h was -1.06%.
With `Cc1nnc2n1CCN(CC(=O)NC(C)c1cc3ccccc3o1)C2` (configuration not stated) the figure was 2.01%; with `CCCn1nnnc1CSc1nccn1C`, -7.23%.
Regarding `CN1CCN(C(C)(C)CNC(=O)C2CCCN2S(C)(=O)=O)CC1` (configuration not stated), the cytotoxicity at 70.5 h is -6.25%.
With `Cc1cc(CN2CCN(C(=O)C3(C#N)CCCCC3)CC2)on1`, the cytotoxicity at 70.5 h is -4.13%.
For `N#Cc1ccc(F)c(CNC(=O)NC(CO)c2ccccc2)c1` (configuration not stated), the cytotoxicity at 70.5 h stood at 13.7%.
With `COC(=O)COc1cc(NCc2c(C)noc2C)c(Cl)cc1C` the figure was -5.04%; with `Cc1ccc(Br)c(S(=O)(=O)NCc2ccnn2C)c1`, -5.04%; with `Cc1c(Br)cccc1C(=O)NCCC1CCCNC1` (configuration not stated), 12%.
With `c1cc2c(cc1C1(CNC3=NCCN3)CCCC1)OCCO2`, the cytotoxicity at 70.5 h is -3.87%.
As for `Clc1ccc(C2(CNC3=NCCN3)CCCC2)cc1`, the figure is 8.18%; as for `Fc1ccc(C2(CNC3=NCCCN3)CCC2)cc1`, -0.346%.
